This note sets out measurements from ChEMBL document CHEMBL5150019, “Targeting Extracellular Signal-Regulated Protein Kinase 1/2 (ERK1/2) in Cancer: An Update on Pharmacological Small-Molecule Inhibitors” (J Med Chem, 2022).

In one assay the test system is MCF7. Put plainly: Antiproliferative activity in human MCF7 cells assessed as cell growth inhibition measured after 24 hrs by MTT assay. Type of assay: functional, cell-based. As to conditions: MCF7, 24 h.
The target in assay [1] is Mitogen-activated protein kinase 1 (Rattus norvegicus, UniProt P63086). Nature of the assay: Binding affinity to rat full-length ERK2 using FQRKTLQRRNLKGLNLNL-XXX-TGPLSPGPF peptide as substrate in presence of [gamma33P]ATP by scintillation counter analysis.
Chain of Mitogen-activated protein kinase 1 (Rattus norvegicus, UniProt P63086) (P63086 whole entry): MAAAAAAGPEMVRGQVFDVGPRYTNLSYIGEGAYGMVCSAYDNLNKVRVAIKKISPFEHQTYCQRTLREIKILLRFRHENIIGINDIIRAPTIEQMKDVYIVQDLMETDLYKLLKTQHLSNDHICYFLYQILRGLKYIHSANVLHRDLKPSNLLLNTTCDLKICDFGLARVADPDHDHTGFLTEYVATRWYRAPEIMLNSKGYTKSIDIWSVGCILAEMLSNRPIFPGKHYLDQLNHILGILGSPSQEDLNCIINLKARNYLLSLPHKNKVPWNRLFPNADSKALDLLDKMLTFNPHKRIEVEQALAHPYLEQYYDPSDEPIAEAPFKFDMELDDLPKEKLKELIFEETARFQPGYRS
Assay [2] addresses T1, Mitogen-activated protein kinase 1 (Homo sapiens, UniProt P28482). Put plainly: Inhibition of ERK2 (unknown origin).
Assay [3] addresses T1, Mitogen-activated protein kinase 1. Put plainly: Binding affinity to ERK2 (unknown origin).
Assay [4] deals with T2, Mitogen-activated protein kinase 3 (Homo sapiens, UniProt P27361). Put plainly: Inhibition of ERK1 (unknown origin).
T2 sequence (P27361 whole entry): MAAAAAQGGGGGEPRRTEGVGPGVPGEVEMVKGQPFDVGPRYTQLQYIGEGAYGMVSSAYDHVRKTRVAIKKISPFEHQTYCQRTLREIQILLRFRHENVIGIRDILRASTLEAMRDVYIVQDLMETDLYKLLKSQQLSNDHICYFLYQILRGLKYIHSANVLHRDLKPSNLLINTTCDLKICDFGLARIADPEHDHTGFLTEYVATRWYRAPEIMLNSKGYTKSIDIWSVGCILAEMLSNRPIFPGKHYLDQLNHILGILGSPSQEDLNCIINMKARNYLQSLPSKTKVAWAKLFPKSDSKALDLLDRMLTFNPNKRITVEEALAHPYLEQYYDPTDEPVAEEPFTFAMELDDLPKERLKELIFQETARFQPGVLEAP
The nature of assay [5]: Antitumor activity against patient-derived Colorectal cancer cell xenografted in NMRI nu/nu mouse CXF-243 model assessed as cell growth inhibition. Type of assay: functional, cell-based. As to conditions: Homo sapiens.
Assay [6] in a line: Antitumor activity against patient-derived Pancreatic cancer cell xenografted in NMRI nu/nu mouse PAXF-2059 model assessed as cell growth inhibition. Type of assay: functional, cell-based. As to conditions: Homo sapiens.
The test system of a further assay is Lung cancer cell line. Put plainly: Antitumor activity against patient-derived Lung cancer cell line xenografted in NMRI nu/nu mouse LXFA-983 model assessed as cell growth inhibition. As to conditions: Homo sapiens. Type of assay: functional, cell-based.
A short description of assay [7]: Antiproliferative activity in mouse MB49 cells assessed as cell growth inhibition. The class given is functional, cell-based.
The subject of a further assay is UMUC3. Put plainly: Antiproliferative activity in human UMUC3 cells assessed as cell growth inhibition. The class given is functional, cell-based.
For assay [8], the target named is T2, Mitogen-activated protein kinase 3. Nature of the assay: Binding affinity to ERK1 (unknown origin).
The target is the same in assay [9]. Put plainly: Binding affinity to ERK1 (unknown origin) measured after 20 mins in presence of [gamma33P]ATP by scintillation counter analysis.

T1 sequence (P28482 whole entry): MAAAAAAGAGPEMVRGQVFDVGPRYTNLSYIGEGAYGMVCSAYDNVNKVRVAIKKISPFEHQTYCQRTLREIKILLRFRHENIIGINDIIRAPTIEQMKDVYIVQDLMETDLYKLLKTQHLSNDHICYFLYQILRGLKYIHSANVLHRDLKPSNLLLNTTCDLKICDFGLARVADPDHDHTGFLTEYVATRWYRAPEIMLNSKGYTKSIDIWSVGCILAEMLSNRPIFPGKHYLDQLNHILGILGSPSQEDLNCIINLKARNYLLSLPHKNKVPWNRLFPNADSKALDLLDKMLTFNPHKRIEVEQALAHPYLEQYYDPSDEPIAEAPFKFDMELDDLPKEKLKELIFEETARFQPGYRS

For `Clc1cc(Cl)cc(C(Cn2ccnc2)OCc2nc3ccccc3s2)c1` (stereo unspecified), the 50% inhibitory concentration (IC50) in the assay on MCF7 worked out at 5000 nM.

On to `O=[N+]([O-])c1cnc(Sc2nnc(O)n2-c2ccc3c(c2)OCCO3)s1`, for which the inhibition constant Ki in assay [1] is 2300 nM.

Consider `COc1ccc2[nH]cc(/C=C3\C(=O)Nc4ccc(NC(=O)CCN5CCCCC5)cc43)c2c1`, for which the half-maximal inhibitory concentration (IC50) in assay [2] stood at 500 nM.

Take `N=C(N)NCCC[C@H]1CNC(=N)N1CCN(CCN1C[C@H](CCCNC(=N)N)N(CCCC2CCCCC2)C1=N)CCN1C[C@H](CCCNC(=N)N)N(CCc2cccc(Br)c2)C1=N`: the affinity in [3], expressed as Kd, was 380 nM. Moreover, the IC50 in assay [2] stood at 9900 nM.

For the compound `C=CC(=O)Nc1cc(C)ccc1Nc1nc(Nc2cc(OC)ncc2C)ncc1C(F)(F)F`, the IC50 in [4] was 10 nM; in assay [2], 10 nM; in assay [5], 586 nM; in assay [6], 621 nM; in the assay with Lung cancer cell line it was 800 nM.

In the case of `Cc1cnc(NC2CCOCC2)nc1-n1cnc(C(=O)N[C@H](CN)c2cc(F)cc(Cl)c2)c1` [ASN007], the IC50 in assay [4] and in assay [2] was 2 nM each time.

As to `O=C1Nc2cc3[nH]nc(-c4ccncc4)c3cc2CN1Cc1ccccc1` [KO-947], the concentration for half-maximal inhibition (IC50) in [4] and in [2] was 10 nM in each case.

For the compound `N=C(N)NC(=N)NCCc1ccccc1` [PHENFORMIN], the IC50 in assay [7] was found to be 570000 nM; with UMUC3 it was 250000 nM.

Take `Cn1nccc1Nc1nccc(-c2cc3c(s2)C(C)(C)N(CCN2CCOCC2)C3=O)n1` [TEMUTERKIB]: the concentration for half-maximal inhibition (IC50) in assay [4] and in [2] was 5 nM throughout. For the same compound, the results for the inhibitory constant (Ki) in assay [3] and in [8] were 0.064 nM and 0.65 nM, respectively.

For the compound `CC(C)Nc1cc(-c2c[nH]c(C(=O)N[C@H](CO)c3cccc(Cl)c3)c2)c(Cl)cn1` [ULIXERTINIB], the Ki in [9] is less than 0.3 nM.
